Like-named read-outs stand apart in the source and are kept apart here.
System: recombinant NL-Rluc virus (NL4-3 with Renilla Luciferase gene) in MT-2 cells
Assay: Inhibition of HIV replication (NL-Rluc luciferase reporter virus, MT-2 cells)
Type: cell-based, human immunodeficiency virus (HIV)
Conditions: NL43, 120 h

Compound	EC50 (read-out: Activity)	EC50 (read-out: EC50 μM)
Cc1nc2c(-c3cccc(Cl)c3)c(-c3ccccc3)nn2c(-c2cc(F)c3c(c2C)CCCO3)c1[C@H](OC(C)(C)C)C(=O)O [Example 140, (2S)-2-(tert-Butoxy)-2-(3-(3-chlorophenyl)-7-(8-fluoro-5-methylchroman-6-yl)-5-methyl-2-phenylpyrazolo[1,5-a]pyrimidin-6-yl)acetic acid]	0.1 to 1 µM	1 µM
Cc1nc2c(-c3cccc(OCc4ccc(F)cc4)c3)c(-c3ccccc3)nn2c(-c2cc(F)c3c(c2C)CCCO3)c1[C@H](OC(C)(C)C)C(=O)O [Example 141, (2S)-2-(tert-Butoxy)-2-(7-(8-fluoro-5-methylchroman-6-yl)-3-(3-((4-fluorobenzyl)oxy)phenyl)-5-methyl-2-phenylpyrazolo[1,5-a]pyrimidin-6-yl)acetic acid]	> 1 µM	3.3 µM
Cc1nc2c(-c3ccc4c(cnn4C)c3)c(-c3ccccc3)nn2c(-c2cc(F)c3c(c2C)CCCO3)c1[C@H](OC(C)(C)C)C(=O)O [Example 142, (2S)-2-(tert-Butoxy)-2-(7-(8-fluoro-5-methylchroman-6-yl)-5-methyl-3-(1-methyl-1H-indazol-5-yl)-2-phenylpyrazolo[1,5-a]pyrimidin-6-yl)acetic acid]	0.1 to 1 µM	
Cc1nc2c(Cl)c(C)nn2c(-c2cc(F)c3c(c2C)CCCO3)c1C(OC(C)(C)C)C(=O)O (stereo not drawn) [Example 143, 2-(tert-Butoxy)-2-(3-chloro-7-(8-fluoro-5-methylchroman-6-yl)-2,5-dimethylpyrazolo[1,5-a]pyrimidin-6-yl)acetic acid]	0.1 to 1 µM	
Cc1nc2c(Cl)c(C)nn2c(-c2ccc3c(c2)CCCO3)c1C(OC(C)(C)C)C(=O)O (stereo not drawn) [Example 144, 2-(tert-Butoxy)2-(3-chloro-7-(chroman-6-yl)-2,5-dimethylpyrazolo[1,5-a]pyrimidin-6-yl)acetic acid]	0.1 to 1 µM	
Cc1nc2cc(-c3cccc(Cl)c3)nn2c(C(C)C)c1[C@H](OC(C)(C)C)C(=O)O [Example 145, (S)-2-(tert-Butoxy)-2-(2-(3-chlorophenyl)-7-isopropyl-5-methylpyrazolo[1,5-a]pyrimidin-6-yl)acetic acid]	> 1 µM	
Cc1nc2cc(-c3cccc(Cl)c3)nn2c(CC(C)C)c1[C@H](OC(C)(C)C)C(=O)O [Example 146, (S)-2-(tert-Butoxy)-2-(2-(3-chlorophenyl)-7-isobutyl-5-methylpyrazolo[1,5-a]pyrimidin-6-yl)acetic acid]	> 1 µM	
Cc1nc2cc(-c3cccc(Cl)c3)nn2c(-c2ccc(F)cc2)c1[C@H](OC(C)(C)C)C(=O)O [Example 147, (S)-2-(tert-Butoxy)-2-(2-(3-chlorophenyl)-7-(4-fluorophenyl)-5-methylpyrazolo[1,5-a]pyrimidin-6-yl)acetic acid]	> 1 µM	
Cc1ccc(-c2c([C@H](OC(C)(C)C)C(=O)O)c(C)nc3cc(-c4cccc(Cl)c4)nn23)cc1 [Example 148, (S)-2-(tert-Butoxy)-2-(2-(3-chlorophenyl)-5-methyl-7-(p-tolyl)pyrazolo[1,5-a]pyrimidin-6-yl)acetic acid]	0.1 to 1 µM	0.88 µM
Cc1nc2cc(-c3cccc(Cl)c3)nn2c(C2CCCCC2)c1[C@H](OC(C)(C)C)C(=O)O [Example 149, (S)-2-(tert-Butoxy)-2-(2-(3-chlorophenyl)-7-cyclohexyl-5-methylpyrazolo[1,5-a]pyrimidin-6-yl)acetic acid]	> 1 µM	
Cc1nc2cc(-c3ccc4c(c3)CCCC4)nn2c(-c2cc(F)c3c(c2C)CCCO3)c1[C@H](OC(C)(C)C)C(=O)O [Example 150, (2S)-2-(tert-Butoxy)-2-(7-(8-fluoro-5-methylchroman-6-yl)-5-methyl-2-(5,6,7,8-tetrahydronaphthalen-2-yl)pyrazolo[1,5-a]pyrimidin-6-yl)acetic acid]	< 0.1 µM	
Cc1nc2cc(-c3ccc4c(c3)CCCC4)nn2c(-c2ccc3c(c2)CCCO3)c1[C@H](OC(C)(C)C)C(=O)O [Example 151, (S)-2-(tert-Butoxy)-2-(7-(chroman-6-yl)-5-methyl-2-(5,6,7,8-tetrahydronaphthalen-2-yl)pyrazolo[1,5-a]pyrimidin-6-yl)acetic acid]	< 0.1 µM	
